Results published in patent publication EP0573360A1, “Pyrrolothienopyrazine compounds as 5-HT3 receptors antagonists” (ADIR ET COMPAGNIE, priority 1992, dated 1993).

Molecular target: T1, récepteurs 5-HT3 (Rattus norvegicus, UniProt P35563)
T1 construct: induite par l'injection intraveineuse d'agonistes 5-HT3 chez le rat anesthésié à l'uréthane; from tissue; host or cells: whole animal: Sprague-Dawley rat, vagal afferents
T1 sequence (P35563 24-483): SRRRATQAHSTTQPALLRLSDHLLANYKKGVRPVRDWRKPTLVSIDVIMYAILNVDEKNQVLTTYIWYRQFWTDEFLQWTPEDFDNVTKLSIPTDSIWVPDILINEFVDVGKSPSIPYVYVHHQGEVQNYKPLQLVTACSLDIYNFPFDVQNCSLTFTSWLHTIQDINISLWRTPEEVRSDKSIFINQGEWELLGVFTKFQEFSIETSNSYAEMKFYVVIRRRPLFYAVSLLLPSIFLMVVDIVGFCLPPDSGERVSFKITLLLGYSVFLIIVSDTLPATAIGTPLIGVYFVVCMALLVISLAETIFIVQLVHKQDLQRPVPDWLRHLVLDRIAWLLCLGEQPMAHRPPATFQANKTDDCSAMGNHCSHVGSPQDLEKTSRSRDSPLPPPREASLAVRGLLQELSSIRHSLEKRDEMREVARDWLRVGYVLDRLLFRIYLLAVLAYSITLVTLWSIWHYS
Assay: Bezold-Jarisch bradycardic reflex in the urethane-anaesthetised rat
Type: in vivo
Settings: for duration of the transient fall of rythme cardiaque: 30 µg i.v.; for prevention of the agonist-induced fall of rythme cardiaque: prior i.v. administration, dose 1 µg/kg
Excerpt: La bradycardie (réflexe de BEZOLD-JARISCH) est induite par l'injection intraveineuse d'agonistes 5-HT3 chez le rat anesthésié à l'uréthane. Cette réponse consiste en une bradycardie brutale mais transitoire induite par la stimulation des récepteurs 5-HT3 sur les afférences vagales. Ce modèle est donc tout à fait approprié pour révéler d'éventuels effet agonistes ou antagonistes de composés qui sont des ligands potentiels des récepteurs 5-HT3.
L'animal (rat mâle, adulte - souche Sprague-Dawley, 250-300 g) est tout d'abord anesthésié à l'uréthane (1,4 g/kg i.p.) puis trachéotomisé pour la mise en place d'une canule trachéale. Un cathéter (0,3 mm) est introduit dans l'aorte abdominale via l'artère fémorale pour l'enregistrement en continu de la pression artérielle et du rythme cardiaque. Les agents pharmacologiques sont injectés dans la veine saphène qui a été canulée à cet effet.

Structure (SMILES) | duration of the transient fall of rythme cardiaque | prevention of the agonist-induced fall of rythme cardiaque
Cc1[nH]c2ccc(O)cc2c1CCN [2-méthyl-5-tryptamine, 2-méthyl-5 hydroxytryptamine] | 4-5 secondes | 
Cc1nccn1CC1CCc2c(c3ccccc3n2C)C1=O (stereo not shown) [ondansetron] |  | complétement empêché
NCCc1c[nH]c2ccc(O)cc12 [sérotonine] | 4-5 secondes | 
COc1cc(N)c(Cl)cc1C(=O)NC1CN2CCC1CC2 (stereo not shown) [zacopride] |  | complétement empêché
